Reference: US11767341B2, “Lincosamide antibiotics and uses thereof” (President and Fellows of Harvard College, priority 2017, dated 2023)
Values after ≈ are worked out from the molar mass of the structure shown. Read-outs that look alike come from different tables or passages of the source.

Legend:
Assay in all cases: MIC determination
Type in all cases: cell-based
S. aureus MMX 3035 cErmA = details: Staphylococcus aureus, MMX3035CERMA; S. aureus MMX 3035 cErmA; read-out: MIC
K. pneumoniae ATCC 10031 = details: Klebsiella pneumoniae, ATCC10031
[1] = test system: S. pyogenes MMX 946 Macrolide-Resistant; details: Streptococcus pyogenes
[2] = test system: E. coli MP-74 LptD mutant
E. coli MP-9 ΔTolC = test system: E. coli MP-9 ΔTolC
S. pneumoniae ATCC 49619 = details: Streptococcus pneumoniae, ATCC49619; S. pneumoniae ATCC 49619; read-out: MIC
S. aureus BAA 977 iErmA = details: Staphylococcus aureus, BAA977
[3] = test system: E. faecalis MMX 847 Macrolide-Resistant; details: Enterococcus faecalis, read-out: MIC
E. coli ATCC 25922 = details: Escherichia coli, ATCC25922, E. coli ATCC 25922; read-out: MIC
S. pyogenes ATCC 19615 = details: S. pyogenes ATCC 19615
[4] = test system: S. pneumoniae MMX 3031 cMefA; details: Streptococcus pneumoniae, MMX3031CMEFA
S. aureus ATCC 29213 = test system: S. aureus ATCC 29213
H. influenzae ATCC 49247 = test system: H. influenzae ATCC 49247
E. faecalis ATCC 29212 = details: Enterococcus faecalis
[5] = test system: S. aureus MP-549 msr(a) USA 300; details: Staphylococcus aureus, USA300, S. aureus MP-549 msr(a) USA 300
[6] = test system: S. pneumoniae MMX 3028 cErmB; details: Streptococcus pneumoniae, MMX3028CERMB
[7] = S. pyogenes MMX 946 Macrolide-Resistant (MacRes), read-out: MIC
[8] = E. faecalis MMX 847 Macrolide-Resistant (MacRes)
[9] = Streptococcus pyogenes, ATCC19615, read-out: MIC
[10] = Staphylococcus aureus, ATCC29213, S. aureus ATCC 29213, read-out: MIC
[11] = Haemophilus influenzae, ATCC49247, H. influenzae ATCC 49247, read-out: MIC
[12] = S. pyogenes MMX 946 MacRes, read-out: MIC
[13] = S. pneumoniae MMX 3028 cErmB, read-out: MIC
[14] = Haemophilus influenzae, ATCC49247

SMILES	MIC (S. aureus MMX 3035 cErmA)	MIC (K. pneumoniae ATCC 10031)	MIC [1, 7]	MIC ([2]; Escherichia coli)	MIC (E. coli MP-9 ΔTolC; Escherichia coli)	MIC (S. pneumoniae ATCC 49619)	MIC (S. aureus BAA 977 iErmA)	MIC [3, 8]	MIC (E. coli ATCC 25922)	MIC (S. pyogenes ATCC 19615; [9])	MIC [4]	MIC (S. aureus ATCC 29213; [10])	MIC (H. influenzae ATCC 49247; [11])	MIC (E. faecalis ATCC 29212; ATCC29212, read-out: MIC)	MIC [5]	MIC [6]	MIC ([3]; E. faecalis MMX 847 MacRes)	MIC [6, 13]	further results
CSC1O[C@H]([C@H](NC(=O)[C@H]2NC[C@@H]3C=C(c4cccc(F)c4)CCO[C@@H]23)[C@H](C)Cl)C(O)[C@@H](O)[C@H]1O (stereo partly drawn) [FSA-511071]	> 64 µg/mL	64 µg/mL (≈ 121 µM)	> 64 µg/mL	64 µg/mL (≈ 121 µM)	64 µg/mL (≈ 121 µM)	0.25 µg/mL (≈ 0.471 µM)	2 µg/mL (≈ 3.77 µM)	> 64 µg/mL	> 64 µg/mL	0.5 µg/mL (≈ 0.942 µM)	0.5 µg/mL (≈ 0.942 µM)	7 µg/mL (≈ 13.2 µM)	> 64 µg/mL	4 µg/mL (≈ 7.53 µM)	1 µg/mL (≈ 1.88 µM)	64 µg/mL (≈ 121 µM)	–	–	–
CSC1O[C@H]([C@H](NC(=O)[C@H]2NC[C@@H]3C=C(c4ccc(F)cc4F)CCO[C@@H]23)[C@H](C)Cl)C(O)[C@@H](O)[C@H]1O (stereo partly drawn) [FSA-511072]	> 64 µg/mL	32 µg/mL (≈ 58.3 µM)	> 64 µg/mL	64 µg/mL (≈ 117 µM)	32 µg/mL (≈ 58.3 µM)	0.12 µg/mL (≈ 0.219 µM)	1 µg/mL (≈ 1.82 µM)	> 64 µg/mL	> 64 µg/mL	0.25 µg/mL (≈ 0.455 µM)	0.12 µg/mL (≈ 0.219 µM)	1 µg/mL (≈ 1.82 µM)	> 64 µg/mL	4 µg/mL (≈ 7.29 µM)	1 µg/mL (≈ 1.82 µM)	64 µg/mL (≈ 117 µM)	–	–	–
CSC1O[C@H]([C@H](NC(=O)[C@H]2NC[C@@H]3C=C(c4ccccc4F)CCO[C@@H]23)[C@H](C)Cl)C(O)[C@@H](O)[C@H]1O (stereo partly drawn) [FSA-511073]	> 64 µg/mL	64 µg/mL (≈ 121 µM)	> 64 µg/mL	64 µg/mL (≈ 121 µM)	64 µg/mL (≈ 121 µM)	0.12 µg/mL (≈ 0.226 µM)	1 µg/mL (≈ 1.88 µM)	> 64 µg/mL	> 64 µg/mL	0.25 µg/mL (≈ 0.471 µM)	0.12 µg/mL (≈ 0.226 µM)	1 µg/mL (≈ 1.88 µM)	> 64 µg/mL	4 µg/mL (≈ 7.53 µM)	1 µg/mL (≈ 1.88 µM)	64 µg/mL (≈ 121 µM)	–	–	–
COc1ccc([C@H]2CCO[C@@H]3[C@H](CN[C@@H]3C(=O)N[C@H]([C@H](C)Cl)[C@H]3OC(SC)[C@H](O)[C@H](O)C3O)C2)cc1 (stereo partly drawn) [FSA-512080b]	64 µg/mL (≈ 117 µM)	–	–	8 µg/mL (≈ 14.7 µM)	4 µg/mL (≈ 7.34 µM)	≤ 0.06 µg/mL	0.25 µg/mL (≈ 0.459 µM)	–	128 µg/mL (≈ 235 µM)	≤ 0.06 µg/mL	≤ 0.06 µg/mL	0.12 µg/mL (≈ 0.22 µM)	16 µg/mL (≈ 29.4 µM)	–	0.5 µg/mL (≈ 0.917 µM)	–	64 µg/mL (≈ 117 µM)	4 µg/mL (≈ 7.34 µM)	MIC [1, 12]: 16 µg/mL (≈ 29.4 µM); MIC (E. faecalis ATCC 29212; ATCC29212): 0.5 µg/mL (≈ 0.917 µM)
COc1ccc([C@@H]2CCO[C@@H]3[C@H](CN[C@@H]3C(=O)N[C@H]([C@H](C)Cl)[C@H]3OC(SC)[C@H](O)[C@H](O)C3O)C2)cc1 (stereo partly drawn) [FSA-512080c]	128 µg/mL (≈ 235 µM)	–	–	32 µg/mL (≈ 58.7 µM)	8 µg/mL (≈ 14.7 µM)	≤ 0.06 µg/mL	0.5 µg/mL (≈ 0.917 µM)	–	> 128 µg/mL	≤ 0.06 µg/mL	0.12 µg/mL (≈ 0.22 µM)	0.25 µg/mL (≈ 0.459 µM)	–	2 µg/mL (≈ 3.67 µM)	0.5 µg/mL (≈ 0.917 µM)	–	128 µg/mL (≈ 235 µM)	16 µg/mL (≈ 29.4 µM)	MIC [1, 12]: 64 µg/mL (≈ 117 µM); MIC (H. influenzae ATCC 49247; [14]): 32 µg/mL (≈ 58.7 µM)
CSC1O[C@H]([C@H](NC(=O)[C@H]2NC[C@@H]3C[C@@H](c4ccc(C#N)cc4)CCO[C@H]32)[C@H](C)Cl)C(O)[C@@H](O)[C@H]1O (stereo partly drawn) [FSA-512081a]	128 µg/mL (≈ 237 µM)	–	–	–	–	–	1 µg/mL (≈ 1.85 µM)	–	–	–	< 0.06 µg/mL	–	–	–	–	–	64 µg/mL (≈ 119 µM)	4 µg/mL (≈ 7.41 µM)	MIC [1]: 16 µg/mL (≈ 29.6 µM); MIC [2]: 16 µg/mL (≈ 29.6 µM); MIC (E. coli MP-9 ΔTolC): 4 µg/mL (≈ 7.41 µM); MIC (S. pyogenes ATCC 19615): ≤0.06 µg/mL; MIC (S. aureus ATCC 29213; S. aureus ATCC 29213): 0.25 µg/mL (≈ 0.463 µM); MIC (H. influenzae ATCC 49247; H. influenzae ATCC 49247): 16 µg/mL (≈ 29.6 µM); MIC (E. faecalis ATCC 29212; ATCC29212): 0.5 µg/mL (≈ 0.926 µM)
CSC1O[C@H]([C@H](NC(=O)[C@H]2NC[C@@H]3C[C@H](c4ccc(C#N)cc4)CCO[C@H]32)[C@H](C)Cl)C(O)[C@@H](O)[C@H]1O (stereo partly drawn) [FSA-512081b]	128 µg/mL (≈ 237 µM)	–	–	32 µg/mL (≈ 59.3 µM)	8 µg/mL (≈ 14.8 µM)	≤ 0.06 µg/mL	1 µg/mL (≈ 1.85 µM)	–	128 µg/mL (≈ 237 µM)	≤ 0.06 µg/mL	0.12 µg/mL (≈ 0.222 µM)	0.25 µg/mL (≈ 0.463 µM)	–	1 µg/mL (≈ 1.85 µM)	1 µg/mL (≈ 1.85 µM)	16 µg/mL (≈ 29.6 µM)	128 µg/mL (≈ 237 µM)	–	MIC [1]: 32 µg/mL (≈ 59.3 µM); MIC (H. influenzae ATCC 49247; [14]): 16 µg/mL (≈ 29.6 µM)
